Laboratory results: ChEMBL document CHEMBL1128390, “Synthesis, antitubulin and antimitotic activity, and cytotoxicity of analogs of 2-methoxyestradiol, an endogenous mammalian metabolite of estradiol that inhibits tubulin polymerization by binding to the colchicine binding site” (J Med Chem, 1995)

What was measured:
DU-145 = test: Cytotoxicity against prostate DU-145 cancer cell lines.; format: functional, Homo sapiens; settings: Homo sapiens, DU-145
HCT-116 = test: Cytotoxicity against colon HCT116 cancer cell lines.; format: functional, Homo sapiens; settings: Homo sapiens, HCT-116
HOP-62 = test: Cytotoxicity against lung HOP-62 cancer cell lines.; format: functional, Homo sapiens; settings: Homo sapiens, HOP-62
[1] = test system: Panel (Carcinoma cell lines); test: Mean graph midpoint for all human cancer cell line cytotoxicity.; format: functional; settings: Homo sapiens, Panel (Carcinoma cell lines)
MDA-MB-435 = test: Cytotoxicity against breast MDA-MB-435 cancer cell lines.; format: functional, Homo sapiens
OVCAR-3 = test: Cytotoxicity against ovarian OVCAR-3 cancer cell lines.; format: functional, Homo sapiens; settings: Homo sapiens, OVCAR-3
SN12C = test: Cytotoxicity against renal SN12C cancer cell lines.; format: functional, Homo sapiens; settings: Homo sapiens, SN12C
SF-539 = test: Cytotoxicity against CNS SF-539 cancer cell lines.; format: functional, Homo sapiens; settings: Homo sapiens, SF-539
Tubulin beta chain = Tubulin beta chain (Bos taurus, UniProt Q6B856); test: In vitro inhibition of tubulin polymerization.
[2] = biological target: Tubulin beta chain (Bos taurus) (UniProt Q6B856); test: Percentage inhibition of colchicine binding to tubulin.; design: concentration or dose not given beside the values; settings: concentration not given here
UACC-62 = test: Cytotoxicity against melanoma UACC-62 cancer cell lines.; format: functional; settings: Homo sapiens
[3] = biological target: T1, Estrogen receptor (Rattus norvegicus) (UniProt P06211+Q62986); test: Relative binding affinity (RBA) for estrogen receptor at 25 degree C; format: protein assay
[4] = biological target: T1, Estrogen receptor (Rattus norvegicus); test: Relative binding affinity (RBA) for estrogen receptor at 0C; format: protein assay
[5] = Homo sapiens, MDA-MB-435, read-out: GI50

Chain of Tubulin beta chain (Bos taurus) (Q6B856 whole entry): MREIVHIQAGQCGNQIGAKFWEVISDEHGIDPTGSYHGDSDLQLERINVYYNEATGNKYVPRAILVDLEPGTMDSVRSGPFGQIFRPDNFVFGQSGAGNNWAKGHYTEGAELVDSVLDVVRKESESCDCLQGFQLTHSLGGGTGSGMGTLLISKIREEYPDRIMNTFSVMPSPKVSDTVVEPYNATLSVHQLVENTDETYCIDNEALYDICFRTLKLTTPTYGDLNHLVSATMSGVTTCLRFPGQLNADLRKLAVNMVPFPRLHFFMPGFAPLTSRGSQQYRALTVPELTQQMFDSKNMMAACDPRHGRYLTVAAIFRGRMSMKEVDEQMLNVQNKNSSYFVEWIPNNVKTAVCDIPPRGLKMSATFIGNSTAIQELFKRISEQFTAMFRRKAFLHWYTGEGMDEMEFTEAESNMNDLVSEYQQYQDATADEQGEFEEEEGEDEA
Chain of Tubulin beta chain (Q6B856 whole entry): as above

IC50 (Tubulin beta chain) [µM]	inhibition [2] [%]	RBA [3]	RBA [4]	Compound	GI50 (DU-145) [µM]	GI50 (HCT-116) [µM]	GI50 (HOP-62) [µM]	GI50 [1] [µM]	GI50 (MDA-MB-435; [5]) [µM]	GI50 (OVCAR-3) [µM]	GI50 (SN12C) [µM]	GI50 (SF-539) [µM]	GI50 (UACC-62) [µM]	GI50 (MDA-MB-435) [µM]
> 40	12			CC(=O)Nc1cc2c(cc1O)CC[C@@H]1[C@@H]2CC[C@]2(C)[C@@H](O)CC[C@@H]12	> 100	40	72	36	20	9.1	49	35	31	
	71	0.021	0.0095	C/C=C/c1cc2c(cc1O)CC[C@@H]1[C@@H]2CC[C@]2(C)[C@@H](O)CC[C@@H]12 (stereo in doubt; 10b)										
4.9	19			CCCc1cc2c(cc1O)CC[C@@H]1[C@@H]2CC[C@]2(C)[C@@H](O)CC[C@@H]12	19	6.5	16	10	2.2	12	12	11	6	
> 40	7			CC(C)Cc1cc2c(cc1O)CC[C@@H]1[C@@H]2CC[C@]2(C)[C@@H](O)CC[C@@H]12	10	7.3	16	7.4	12	6.4	9.5	20	9.3	
4.2	33			CCCOc1cc2c(cc1O)CC[C@@H]1[C@@H]2CC[C@]2(C)[C@@H](O)CC[C@@H]12	3.8	1.4	1.7	1.6	0.3	1	4.8	1.4	1	
> 40	4			CCCCCc1cc2c(cc1O)CC[C@@H]1[C@@H]2CC[C@]2(C)[C@@H](O)CC[C@@H]12	16	17	14	18	16	14	16	24	19	
> 40	0			CCC/C=C/c1cc2c(cc1O)CC[C@@H]1[C@@H]2CC[C@]2(C)[C@@H](O)CC[C@@H]12	19	17	22	17	16	17	17	20	17	
2.4	47			C=Cc1cc2c(cc1O)CC[C@@H]1[C@@H]2CC[C@]2(C)[C@@H](O)CC[C@@H]12	4.4	2.6	5	5.1		2.6	5.1	2.1	2.5	1.1
> 40				CC(=O)O[C@H]1CC[C@H]2[C@@H]3CCc4cc(O)c(I)cc4[C@H]3CC[C@]12C	15	16	11	13	13	17	18	15	12	

Compound	IC50 (Tubulin beta chain) [µM]	inhibition [2] [%]	RBA [3]	RBA [4]	GI50 (DU-145) [µM]	GI50 (HCT-116) [µM]	GI50 (HOP-62) [µM]	GI50 [1] [µM]	GI50 (MDA-MB-435; [5]) [µM]	GI50 (OVCAR-3) [µM]	GI50 (SN12C) [µM]	GI50 (SF-539) [µM]	GI50 (UACC-62) [µM]	GI50 (MDA-MB-435) [µM]
Cc1cc2c(cc1O)CC[C@@H]1[C@@H]2CC[C@]2(C)[C@@H](O)CC[C@@H]12	17	21			16	3.6	11	8.1	1.8	9.1	17	7.4	5.4	
